Source: ChEMBL document CHEMBL4138083, “Design, synthesis and primary biological evaluation of the novel 2-pyridone derivatives as potent non-nucleoside HBV inhibitors” (Eur J Med Chem, 2017)

How the values were obtained:
Hepatitis B virus [1] = assay: Antiviral activity against Hepatitis B virus infected in human HepG2.2.15 cells assessed as inhibition of HBsAg secretion after 8 days by ELISA; type: functional, organism-based; conditions: HepG2.2.15, 192 h
[2] = Selectivity index, ratio of CC50 for human HepG2.2.15 cells to IC50 for Hepatitis B virus infected in human HepG2.2.15 cells assessed as inhibition of HBsAg secretion; type: toxicity, cell-based; conditions: read-out: Ratio CC50/IC50
Hepatitis B virus [3] = assay: Antiviral activity against Hepatitis B virus infected in human HepG2.2.15 cells assessed as inhibition of HBeAg secretion after 8 days by ELISA; type: functional, organism-based; conditions: HepG2.2.15, 192 h
Hepatitis B virus [4] = assay: Antiviral activity against Hepatitis B virus infected in human HepG2.2.15 cells assessed as inhibition of viral DNA replication at 20 uM after 8 days by real time fluorescent PCR method relative to control; type: functional; conditions: HepG2.2.15, 192 h
[5] = Cytotoxicity against human HepG2.2.15 cells assessed as reduction in cell viability after 8 days by CCK-8 assay; type: cell-based, HepG2 2.2.15
[6] = Selectivity index, ratio of CC50 for human HepG2.2.15 cells to IC50 for Hepatitis B virus infected in human HepG2.2.15 cells assessed as inhibition of HBeAg secretion; type: toxicity, cell-based; conditions: read-out: Ratio CC50/IC50
Hepatitis B virus [7] = assay: Antiviral activity against Hepatitis B virus infected in human HepG2.2.15 cells assessed as inhibition of viral DNA replication at 4 uM after 8 days by real time fluorescent PCR method relative to control; type: functional; conditions: HepG2.2.15, 192 h
Hepatitis B virus [8] = assay: Antiviral activity against Hepatitis B virus infected in human HepG2.2.15 cells assessed as inhibition of viral DNA replication at 0.16 uM after 8 days by real time fluorescent PCR method relative to control; type: functional; conditions: HepG2.2.15, 192 h
Hepatitis B virus [9] = assay: Antiviral activity against Hepatitis B virus infected in human HepG2.2.15 cells assessed as inhibition of viral DNA replication after 8 days by real time fluorescent PCR method; type: functional, organism-based; conditions: HepG2.2.15, 192 h
Hepatitis B virus [10] = assay: Antiviral activity against Hepatitis B virus infected in human HepG2.2.15 cells assessed as inhibition of viral DNA replication at 0.8 uM after 8 days by real time fluorescent PCR method relative to control; type: functional; conditions: HepG2.2.15, 192 h
Hepatitis B virus [11] = assay: Antiviral activity against Hepatitis B virus assessed as inhibition of HBsAg secretion; type: functional, organism-based

SMILES: CCOc1ccc(-c2cc(NC(=O)c3cccc(OC)c3O)c[nH]c2=O)cc1
- IC50 (Hepatitis B virus [1]): 30.5 µM
- selectivity ratio [2]: 1.13
- IC50 (Hepatitis B virus [3]): 41.3 µM
- inhibition at 20 µM (Hepatitis B virus [4]): 24.9%
- CC50 at 192 h [5]: 34.5 µM
- selectivity ratio [6]: 0.83

SMILES: Cc1cc(C)cc(-c2cc(NC(=O)c3ccccc3O)c[nH]c2=O)c1
- IC50 (Hepatitis B virus [1]): 25.3 µM
- selectivity ratio [2]: 0.99
- IC50 (Hepatitis B virus [3]): 25.3 µM
- inhibition at 20 µM (Hepatitis B virus [4]): 21.5%
- CC50 at 192 h [5]: 25.1 µM
- selectivity ratio [6]: 0.99

SMILES: Nc1ccn([C@@H]2CS[C@H](CO)O2)c(=O)n1 [LAMIVUDINE]
- inhibition at 4 µM (Hepatitis B virus [7]): 80.8%
- inhibition at 0.16 µM (Hepatitis B virus [8]): 37%
- IC50 (Hepatitis B virus [1]): > 100 µM
- IC50 (Hepatitis B virus [3]): > 100 µM
- inhibition at 20 µM (Hepatitis B virus [4]): 81.9%
- CC50 at 192 h [5]: > 100 µM
- IC50 (Hepatitis B virus [9]): 0.5 µM
- inhibition at 0.8 µM (Hepatitis B virus [10]): 56.2%

SMILES: CCOc1ccc(-c2cc(NC(=O)c3ccc(Cl)cc3O)c[nH]c2=O)cc1
- IC50 (Hepatitis B virus [1]): 23.2 µM
- selectivity ratio [2]: 1.23
- IC50 (Hepatitis B virus [3]): 22.8 µM
- inhibition at 20 µM (Hepatitis B virus [4]): 21.9%
- CC50 at 192 h [5]: 28.6 µM
- selectivity ratio [6]: 1.25

SMILES: COc1ccc(C(=O)Nc2c[nH]c(=O)c(-c3ccc4c(c3)OCO4)c2)c(O)c1
- IC50 (Hepatitis B virus [1]): 26.4 µM
- selectivity ratio [2]: 0.95
- IC50 (Hepatitis B virus [3]): 24.2 µM
- inhibition at 20 µM (Hepatitis B virus [4]): 51.9%
- CC50 at 192 h [5]: 25.2 µM
- selectivity ratio [6]: 1.04

SMILES: Cc1cccc(-c2cc(NC(=O)c3ccccc3O)c[nH]c2=O)c1
- IC50 (Hepatitis B virus [1]): > 100 µM
- selectivity ratio [2]: < 0.99
- IC50 (Hepatitis B virus [3]): 58.4 µM
- inhibition at 20 µM (Hepatitis B virus [4]): 25.5%
- CC50 at 192 h [5]: 98.8 µM
- selectivity ratio [6]: 1.69

SMILES: COc1ccc(-c2cc(NC(=O)c3ccc(C)cc3O)c[nH]c2=O)cc1
- IC50 (Hepatitis B virus [1]): 89.9 µM
- selectivity ratio [2]: 0.51
- IC50 (Hepatitis B virus [3]): 23.6 µM
- inhibition at 20 µM (Hepatitis B virus [4]): 58.1%
- CC50 at 192 h [5]: 46.1 µM
- selectivity ratio [6]: 1.96

SMILES: COc1ccc(C(=O)Nc2c[nH]c(=O)c(-c3ccc(C)c(C)c3)c2)c(O)c1
- IC50 (Hepatitis B virus [1]): 32.4 µM
- selectivity ratio [2]: 0.97
- IC50 (Hepatitis B virus [3]): 33.2 µM
- inhibition at 20 µM (Hepatitis B virus [4]): < 0%
- CC50 at 192 h [5]: 31.3 µM
- selectivity ratio [6]: 0.94

SMILES: COc1ccc(C(=O)Nc2c[nH]c(=O)c(-c3cccc(C)c3)c2)c(O)c1
- IC50 (Hepatitis B virus [1]): > 100 µM
- IC50 (Hepatitis B virus [3]): 44.6 µM
- inhibition at 20 µM (Hepatitis B virus [4]): 60.9%
- CC50 at 192 h [5]: > 100 µM
- selectivity ratio [6]: > 2.24

SMILES: COc1ccc(-c2cc(NC(=O)c3ccc(OC)cc3O)c[nH]c2=O)cc1
- IC50 (Hepatitis B virus [1]): 26 µM
- selectivity ratio [2]: 1.92
- IC50 (Hepatitis B virus [3]): 17.5 µM
- inhibition at 20 µM (Hepatitis B virus [4]): 59.3%
- CC50 at 192 h [5]: 49.9 µM
- selectivity ratio [6]: 2.86

SMILES: COc1ccc(C(=O)Nc2c[nH]c(=O)c(-c3ccc(OC)c(F)c3)c2)c(O)c1
- IC50 (Hepatitis B virus [1]): 52.2 µM
- selectivity ratio [2]: 0.97
- IC50 (Hepatitis B virus [3]): 31.6 µM
- CC50 at 192 h [5]: 50.5 µM
- selectivity ratio [6]: 1.6

SMILES: COc1ccc(C(=O)Nc2c[nH]c(=O)c(-c3cc(C)ccc3C)c2)c(O)c1
- IC50 (Hepatitis B virus [1]): 51.5 µM
- selectivity ratio [2]: 0.98
- IC50 (Hepatitis B virus [3]): 25.8 µM
- inhibition at 20 µM (Hepatitis B virus [4]): < 0%
- CC50 at 192 h [5]: 50.4 µM
- selectivity ratio [6]: 1.95

SMILES: CCOc1ccc(-n2cc(C(=O)c3ccc(OC)cc3O)ccc2=O)cc1
- IC50 (Hepatitis B virus [1]): > 100 µM
- IC50 (Hepatitis B virus [3]): 51.5 µM
- inhibition at 20 µM (Hepatitis B virus [4]): 53.3%
- CC50 at 192 h [5]: > 100 µM
- selectivity ratio [6]: > 1.94

SMILES: COc1c(O)cc2occ(-c3ccc(O)cc3)c(=O)c2c1O [TECTORIGENIN]
- IC50 (Hepatitis B virus [11]): 53.9 µM
